Consider seven compounds from ChEMBL document CHEMBL4477238, “Ligand binding cooperativity: Bioisosteric replacement of CO with SO2 among thrombin inhibitors” (Bioorg Med Chem Lett, 2016).

The structures appear in SMILES notation.

This assay deals with Prothrombin (Homo sapiens, UniProt P00734). In words: Inhibition of human alpha-thrombin using chromogenic substrate Pefachrome tPa measured every second for 20 mins by spectrophotometry.
As a reminder, the Ki is a dissociation constant, usually derived from enzyme kinetics or from competition with a known ligand. Read a high Ki as weaker binding. Regarding `CC(C)CC(=O)N1CCC[C@H]1C(=O)NCc1ccc(C(=N)N)cc1`, the Ki is 4 µM.
The same measure for `N=C(N)c1ccc(CNC(=O)[C@@H]2CCCN2C(=O)Cc2ccccc2)cc1`: 0.2 µM; for `CCS(=O)(=O)N1CCC[C@H]1C(=O)NCc1ccc(C(=N)N)cc1`: 117 µM; for `CC(C)CS(=O)(=O)N1CCC[C@H]1C(=O)NCc1ccc(C(=N)N)cc1`: 3.4 µM.
The same measure for `N=C(N)c1ccc(CNC(=O)[C@@H]2CCCN2S(=O)(=O)Cc2ccccc2)cc1`: 2.5 µM.
The compound `CC(C)CCS(=O)(=O)N1CCC[C@H]1C(=O)NCc1ccc(C(=N)N)cc1` had an inhibitory constant (Ki) of 2.7 µM.
For `CCCS(=O)(=O)N1CCC[C@H]1C(=O)NCc1ccc(C(=N)N)cc1` the value was 12 µM.
